# Test results taken from patent publication US12043632B2, “6-heteroaryloxy benzimidazoles and azabenzimidazoles as JAK2 inhibitors” (Ajax Therapeutics, Inc., priority 2020, dated 2024).
# Target: T1, JAK2 (JH1domain-catalytic, Y1007F,Y1008F) kinase (Homo sapiens, UniProt O60674, Y1007F/Y1008F)
# T1 construct: JAK2 (JH1domain-catalytic, Y1007F,Y1008F) kinase was expressed as N-terminal fusion; made in house; host or cells: transiently transfected HEK293 cells
# Experiment: JAK2 JH1 Domain Binding Assay
# Details: qPCR readout
# T1 sequence (O60674 849-1124 Y1007F/Y1008F limits assumed): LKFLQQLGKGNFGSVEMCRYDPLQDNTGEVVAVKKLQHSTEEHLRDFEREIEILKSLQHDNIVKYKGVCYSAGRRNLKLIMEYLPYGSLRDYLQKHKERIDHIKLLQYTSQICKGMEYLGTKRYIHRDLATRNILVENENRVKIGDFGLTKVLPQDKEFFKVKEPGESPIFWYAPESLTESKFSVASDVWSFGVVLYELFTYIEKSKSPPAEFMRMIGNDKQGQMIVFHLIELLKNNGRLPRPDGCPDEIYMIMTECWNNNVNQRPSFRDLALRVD
row,SMILES,Kd
1,"CN1CCN(Cc2ccc(Nc3nc4ncc(Oc5cnn6ccncc56)c(Cl)c4n3C)cc2C(F)(F)F)CC1 [Example I-120, 7-chloro-1-methyl-N-(4-((4-methylpiperazin-1-yl)methyl)-3-(trifluoromethyl)phenyl)-6-(pyrazolo[1,5-a]pyrazin-3-yloxy)-1H-imidazo[4,5-b]pyridin-2-amine]",< 0.01 µM
2,"Cn1c(Nc2cc3n(n2)CCCC3(C)C)nc2ncc(Oc3cnn4ccnc(OCCO)c34)c(Cl)c21 [Example I-124, 2-((3-((7-chloro-2-((4,4-dimethyl-4,5,6,7-tetrahydropyrazolo[1,5-a]pyridin-2-yl)amino)-1-methyl-1H-imidazo[4,5-b]pyridin-6-yl)oxy)pyrazolo[1,5-a]pyrazin-4-yl)oxy)ethan-1-ol]",< 0.01 µM
3,"CNc1nccn2ncc(Oc3cnc4nc(Nc5cc6n(n5)CCCC6(C)C)n(C)c4c3Cl)c12 [Example I-125, 7-chloro-N-(4,4-dimethyl-4,5,6,7-tetrahydropyrazolo[1,5-a]pyridin-2-yl)-1-methyl-6-((4-(methylamino)pyrazolo[1,5-a]pyrazin-3-yl)oxy)-1H-imidazo[4,5-b]pyridin-2-amine]",0.01 to 0.05 µM
4,"Cn1cc(C(F)(F)F)cc(Nc2nc3ncc(Oc4cnn5ccnc(OCCN6CCOCC6)c45)c(Cl)c3n2C)c1=O [Example I-127, 3-((7-chloro-1-methyl-6-((4-(2-morpholinoethoxy)pyrazolo[1,5-a]pyrazin-3-yl)oxy)-1H-imidazo[4,5-b]pyridin-2-yl)amino)-1-methyl-5-(trifluoromethyl)pyridin-2(1H)-one]",0.01 to 0.05 µM
5,"CNc1nccn2ncc(Oc3cnc4nc(Nc5cc(C(F)(F)F)cn(C)c5=O)n(C)c4c3Cl)c12 [Example I-128, 3-((7-chloro-1-methyl-6-((4-(methylamino)pyrazolo[1,5-a]pyrazin-3-yl)oxy)-1H-imidazo[4,5-b]pyridin-2-yl)amino)-1-methyl-5-(trifluoromethyl)pyridin-2(1H)-one]",< 0.01 µM
6,"COc1c(Oc2cnc3cnc(C4CC4)n3c2)cnc2nc(Nc3cc(C(C)(C)C)n([C@H]4C[C@H](O)C4)n3)n(C)c12 [Example I-130, (1r,3r)-3-(5-(tert-butyl)-3-((6-((6-cyclopropylimidazo[1,5-a]pyrimidin-3-yl)oxy)-7-methoxy-1-methyl-1H-imidazo[4,5-b]pyridin-2-yl)amino)-1H-pyrazol-1-yl)cyclobutan-1-ol]",0.01 to 0.05 µM
7,"CNc1nccn2ncc(Oc3cnc4nc(Nc5cc(C6CC6)cn(C)c5=O)n(C)c4c3Cl)c12 [Example I-134, 3-((7-chloro-1-methyl-6-((4-(methylamino)pyrazolo[1,5-a]pyrazin-3-yl)oxy)-1H-imidazo[4,5-b]pyridin-2-yl)amino)-5-cyclopropyl-1-methylpyridin-2(1H)-one]",< 0.01 µM
8,"COCCOc1nccn2ncc(Oc3cnc4nc(Nc5cc(C6CC6)cn(C)c5=O)n(C)c4c3Cl)c12 [Example I-135, 3-((7-chloro-6-((4-(2-methoxyethoxy)pyrazolo[1,5-a]pyrazin-3-yl)oxy)-1-methyl-1H-imidazo[4,5-b]pyridin-2-yl)amino)-5-cyclopropyl-1-methylpyridin-2(1H)-one]",< 0.01 µM
9,"Cn1c(Nc2cc(C(C)(C)C)n([C@H]3CCOC3)n2)nc2ncc(Oc3cnn4ccncc34)c(C#N)c21 [Example I-137, (S)-2-((5-(tert-butyl)-1-(tetrahydrofuran-3-yl)-1H-pyrazol-3-yl)amino)-1-methyl-6-(pyrazolo[1,5-a]pyrazin-3-yloxy)-1H-imidazo[4,5-b]pyridine-7-carbonitrile]",0.01 to 0.05 µM
10,"Cn1c(Nc2cc(C(F)(F)F)cn(CCO)c2=O)nc2ncc(Oc3cnn4ccnc(N5CCOCC5)c34)c(Cl)c21 [Example I-140, 3-((7-chloro-1-methyl-6-((4-morpholinopyrazolo[1,5-a]pyrazin-3-yl)oxy)-1H-imidazo[4,5-b]pyridin-2-yl)amino)-1-(2-hydroxyethyl)-5-(trifluoromethyl)pyridin-2(1H)-one]",0.01 to 0.05 µM
11,"Cn1cc(C(F)(F)C(F)(F)F)cc(Nc2nc3ncc(Oc4cnn5ccncc45)c(Cl)c3n2C)c1=O [Example I-144, 3-((7-chloro-1-methyl-6-(pyrazolo[1,5-a]pyrazin-3-yloxy)-1H-imidazo[4,5-b]pyridin-2-yl)amino)-1-methyl-5-(perfluoroethyl)pyridin-2(1H)-one]",< 0.01 µM
12,"Cn1c(Nc2cc(C(=O)NCCN3CCOCC3)cc(C(F)(F)F)c2)nc2ncc(Oc3cnn4ccccc34)c(Cl)c21 [Example I-145, 3-((7-chloro-1-methyl-6-(pyrazolo[1,5-a]pyridin-3-yloxy)-1H-imidazo[4,5-b]pyridin-2-yl)amino)-N-(2-morpholinoethyl)-5-(trifluoromethyl)benzamide]",0.01 to 0.05 µM
13,"CCN1CCN(Cc2ccc(Nc3nc4ncc(Oc5cnn6ccncc56)c(Cl)c4n3C)cc2C(F)(F)F)CC1 [Example I-146, 7-chloro-N-(4-((4-ethylpiperazin-1-yl)methyl)-3-(trifluoromethyl)phenyl)-1-methyl-6-(pyrazolo[1,5-a]pyrazin-3-yloxy)-1H-imidazo[4,5-b]pyridin-2-amine]",< 0.01 µM
14,"Cn1c(Nc2ccc(CN3CCOCC3)c(C(F)(F)F)c2)nc2ncc(Oc3cnn4ccncc34)c(Cl)c21 [Example I-149, 7-chloro-1-methyl-N-(4-(morpholinomethyl)-3-(trifluoromethyl)phenyl)-6-(pyrazolo[1,5-a]pyrazin-3-yloxy)-1H-imidazo[4,5-b]pyridin-2-amine]",< 0.01 µM
15,"Cn1c(Nc2cc(C3CC3)cn([C@H]3C[C@@H](O)C3)c2=O)nc2ncc(Oc3cnn4cc(F)ccc34)c(Cl)c21 [Example I-151, cis-3-((7-chloro-6-((6-fluoropyrazolo[1,5-a]pyridin-3-yl)oxy)-1-methyl-1H-imidazo[4,5-b]pyridin-2-yl)amino)-5-cyclopropyl-1-(3-hydroxycyclobutyl)pyridin-2(1H)-one]",< 0.01 µM
16,"Cn1c(Nc2cc(C3CC3)cn([C@H]3C[C@H](O)C3)c2=O)nc2ncc(Oc3cnn4cc(F)ccc34)c(Cl)c21 [Example I-152, trans-3-((7-chloro-6-((6-fluoropyrazolo[1,5-a]pyridin-3-yl)oxy)-1-methyl-1H-imidazo[4,5-b]pyridin-2-yl)amino)-5-cyclopropyl-1-(3-hydroxycyclobutyl)pyridin-2(1H)-one]",< 0.01 µM
17,"COCCOc1ccc2c(Oc3cnc4nc(Nc5cc(C6CC6)nn(CCO)c5=O)n(C)c4c3Cl)cnn2c1 [Example I-153, 4-((7-chloro-6-((6-(2-methoxyethoxy)pyrazolo[1,5-a]pyridin-3-yl)oxy)-1-methyl-1H-imidazo[4,5-b]pyridin-2-yl)amino)-6-cyclopropyl-2-(2-hydroxyethyl)pyridazin-3(2H)-one]",< 0.01 µM

# Results, then the compound that gave them:
row,Kd,SMILES
1,0.01 to 0.05 µM,"COc1c(Oc2cnn3ccccc23)cnc2nc(Nc3cc(C4CC4)cn(CCCN4CCC(F)(F)C4)c3=O)n(C)c12 [Example I-123, 5-cyclopropyl-1-(3-(3,3-difluoropyrrolidin-1-yl)propyl)-3-((7-methoxy-1-methyl-6-(pyrazolo[1,5-a]pyridin-3-yloxy)-1H-imidazo[4,5-b]pyridin-2-yl)amino)pyridin-2(1H)-one]"
2,< 0.01 µM,"Cn1c(Nc2cc(C3CC3)nn(CCO)c2=O)nc2ncc(Oc3cnn4ccccc34)c(Cl)c21 [Example I-126, 4-((7-chloro-1-methyl-6-(pyrazolo[1,5-a]pyridin-3-yloxy)-1H-imidazo[4,5-b]pyridin-2-yl)amino)-6-cyclopropyl-2-(2-hydroxyethyl)pyridazin-3(2H)-one]"
3,0.01 to 0.05 µM,"Cn1c(Nc2cc(C3CC3)cn(CCCN3CCCC(F)(F)C3)c2=O)nc2ncc(Oc3cnn4ccncc34)c(Cl)c21 [Example I-129, 3-((7-chloro-1-methyl-6-(pyrazolo[1,5-a]pyrazin-3-yloxy)-1H-imidazo[4,5-b]pyridin-2-yl)amino)-5-cyclopropyl-1-(3-(3,3-difluoropiperidin-1-yl)propyl)pyridin-2(1H)-one]"
4,< 0.01 µM,"Cn1c(Nc2cc(C3CC3)cn(CC#N)c2=O)nc2ncc(Oc3cnn4ccncc34)c(Cl)c21 [Example I-132, 2-(3-((7-chloro-1-methyl-6-(pyrazolo[1,5-a]pyrazin-3-yloxy)-1H-imidazo[4,5-b]pyridin-2-yl)amino)-5-cyclopropyl-2-oxopyridin-1(2H)-yl)acetonitrile]"
5,0.01 to 0.05 µM,"Cn1cc(C2CC2)cc(Nc2nc3ncc(Oc4cnn5ccnc(OCCN6CCOCC6)c45)c(Cl)c3n2C)c1=O [Example I-136, 3-((7-chloro-1-methyl-6-((4-(2-morpholinoethoxy)pyrazolo[1,5-a]pyrazin-3-yl)oxy)-1H-imidazo[4,5-b]pyridin-2-yl)amino)-5-cyclopropyl-1-methylpyridin-2(1H)-one]"
6,0.01 to 0.05 µM,"Cn1c(Nc2cc(C(F)(F)F)cn(CCCN3CCCC(F)(F)C3)c2=O)nc2ncc(Oc3cnn4ccncc34)c(Cl)c21 [Example I-138, 3-((7-chloro-1-methyl-6-(pyrazolo[1,5-a]pyrazin-3-yloxy)-1H-imidazo[4,5-b]pyridin-2-yl)amino)-1-(3-(3,3-difluoropiperidin-1-yl)propyl)-5-(trifluoromethyl)pyridin-2(1H)-one]"
7,< 0.01 µM,"Cn1c(Nc2cc(C3CC3)cn(CCO)c2=O)nc2ncc(Oc3cnn4cccc(F)c34)c(Cl)c21 [Example I-141, 3-((7-chloro-6-((4-fluoropyrazolo[1,5-a]pyridin-3-yl)oxy)-1-methyl-1H-imidazo[4,5-b]pyridin-2-yl)amino)-5-cyclopropyl-1-(2-hydroxyethyl)pyridin-2(1H)-one]"
8,< 0.01 µM,"Cn1c(Nc2cc(C3CC3)nn([C@@H]3CCOC3)c2=O)nc2ncc(Oc3cnn4ccccc34)c(Cl)c21 [Example I-142, (R)-4-((7-chloro-1-methyl-6-(pyrazolo[1,5-a]pyridin-3-yloxy)-1H-imidazo[4,5-b]pyridin-2-yl)amino)-6-cyclopropyl-2-(tetrahydrofuran-3-yl)pyridazin-3(2H)-one]"
9,< 0.01 µM,"Cn1c(Nc2cc(C3CC3)nn([C@H]3CCOC3)c2=O)nc2ncc(Oc3cnn4ccccc34)c(Cl)c21 [Example I-143, (S)-4-((7-chloro-1-methyl-6-(pyrazolo[1,5-a]pyridin-3-yloxy)-1H-imidazo[4,5-b]pyridin-2-yl)amino)-6-cyclopropyl-2-(tetrahydrofuran-3-yl)pyridazin-3(2H)-one]"
